Counter-ions that a name gives are not always drawn.

From patent US10858335B2 (Rigel Pharmaceuticals, Inc., priority 2014, dated 2020) come the findings set out here.

The first test deals with GDF8 signaling (p-SMAD-3 (Ser423/425)). The experiment in a line: AlphaScreen SureFire SMAD3 (p-Ser423/425) assay, GDF8-stimulated cells (GDF pSMAD). The format is cell-based. As to conditions: Mus musculus, MPC-11, GDF8-stimulated pSMAD3, MPC11; tested as the salt form given; read-out: GDF pSMAD (MPC11) (μM), inhibition of GDF8 signaling.
In the case of `CN1CCN(CCCNc2ncnc3ccc(-c4cccnc4-c4cc(Cl)ccc4F)cc23)CC1` [compound 1046], the IC50 was 1.63 µM.

Still in this test, the particulars now being: Mus musculus, MPC-11, MPC11; GDF8-stimulated; p-SMAD3 AlphaScreen; read-out: GDF pSMAD (MPC11) (inhibition of GDF8 signaling).
On to `CCN(CC)c1ncnc2ccc(-c3cccnc3-c3cccc(O)c3)cc12` [compound 399, 3-(3-(4-(Diethylamino)quinazolin-6-yl)pyridin-2-yl)phenol], for which the IC50 was determined as 4.65 µM.
Regarding `Cc1cc(-c2ncccc2-c2ccc3ncnc(NCc4cccnc4)c3c2)ccc1F` [compound 416, 6-(2-(4-Fluoro-3-methylphenyl)pyridin-3-yl)-N-(pyridin-3-ylmethyl)quinazolin-4-amine], the IC50 was determined as 4.86 µM.
On the same count and under the same terms, the result for `COc1ncnc2ccc(-c3cccnc3-c3cccc(C4CC4)c3)cc12` [compound 377, 6-(2-(3-Cyclopropylphenyl)pyridin-3-yl)-4-methoxyquinazoline] reads 0.172 µM; that for `Cc1cc(-c2ncccc2-c2ccc3ncnc(Oc4cccc(C#N)c4)c3c2)ccc1F` [compound 441, 3-((6-(2-(4-Fluoro-3-methylphenyl)pyridin-3-yl)quinazolin-4-yl)oxy)benzonitrile], 1.16 µM.
For `Cc1ccc(F)cc1-c1ncccc1-c1ccc2ncnc(N)c2c1` [compound 466, 6-(2-(5-Fluoro-2-methylphenyl)pyridin-3-yl)quinazolin-4-amine], the IC50 came out at 7.58 µM.
As for `COc1cc(-c2ncccc2-c2cnc3cn[nH]c3c2)ccc1F` [Compound 143, 6-(2-(4-Fluoro-3-methoxyphenyl)pyridin-3-yl)-1H-pyrazolo[4,3-b]pyridine], the IC50 is 12.2 µM.
In the case of `Fc1ccc(-c2ncccc2-c2cnc3[nH]ncc3c2)cc1` [Compound 80, 5-(2-(4-Fluorophenyl)pyridin-3-yl)-1H-pyrazolo[3,4-b]pyridine], the IC50 worked out at 6.33 µM.
For the compound `Nc1ncnc2ccc(-c3cccnc3-c3ccccc3Cl)cc12` [compound 497, 6-(2-(2-Chlorophenyl)pyridin-3-yl)quinazolin-4-amine], the IC50 was determined as 9.22 µM.
On the same count and under the same terms, the result for `Cn1c(=O)cnc2ccc(-c3cccnc3-c3cc(Cl)ccc3F)cc21` [compound 889, 7-(2-(5-Chloro-2-fluorophenyl)pyridin-3-yl)-1-methylquinoxalin-2(1H)-one] reads 1.52 µM; that for `Cc1cnc2ccc(-c3cccnc3-c3cc(Cl)c(F)cc3F)cn12` [compound 766, 6-(2-(5-Chloro-2,4-difluorophenyl)pyridin-3-yl)-3-methylimidazo[1,2-a]pyridine], 0.105 µM; that for `FC(F)(F)Oc1cccc(-c2ncccc2-c2ccn3ncnc3c2)c1` [compound 882, 7-(2-(3-(Trifluoromethoxy)phenyl)pyridin-3-yl)-[1,2,4]triazolo[1,5-a]pyridine], 1.12 µM.
Regarding `Cc1cc(-c2ncccc2-c2ccn3c(C(=O)NCCCN(C)C)ncc3c2)ccc1F` [compound 267, N-(3-(Dimethylamino)propyl)-7-(2-(4-fluoro-3-methylphenyl)pyridin-3-yl)imidazo[1,5-a]pyridine-3-carboxamide], the IC50 was found to be 6.76 µM.
On to `COc1ncnc2ccc(-c3cccnc3-c3cc(Cl)c(F)cc3F)cc12` [compound 821, 6-(2-(5-Chloro-2,4-difluorophenyl)pyridin-3-yl)-4-methoxyquinazoline], for which the IC50 worked out at 2.16 µM.
For the compound `OCc1cnc2ccc(-c3cccnc3-c3cccc(C4CC4)c3)cn12` [compound 567, (6-(2-(3-Cyclopropylphenyl)pyridin-3-yl)imidazo[1,2-a]pyridin-3-yl)methanol], the IC50 turned out to be 0.225 µM.
Still for that read-out and setting: the result for `COc1cc(-c2ncccc2-c2cnc3[nH]ncc3c2)ccc1F` [Compound 157, 5-(2-(4-Fluoro-3-methoxyphenyl)pyridin-3-yl)-1H-pyrazolo[3,4-b]pyridine] reads 1.56 µM; that for `Cc1cc(-c2ncccc2-c2ccc3c(cnn3C(=O)OC[C@@H](N)Cc3c[nH]c4ccccc34)c2)ccc1F` [compound 179, (S)-2-Amino-3-(1H-indol-3-yl)propyl 5-(2-(4-fluoro-3-methylphenyl)pyridin-3-yl)-1H-indazole-1-carboxylate Trifluoroacetic Acid Salt], 0.337 µM; that for `Cc1cc(-c2ncccc2-c2ccc3cn[nH]c3c2)ccc1F` [Compound 99, 6-(2-(4-Fluoro-3-methylphenyl)pyridin-3-yl)-1H-indazole], 0.894 µM.
Turning to `O=c1nc[nH]c2ccc(-c3cccnc3-c3cccc(C4CC4)c3)cc12` [compound 362, 6-(2-(3-Cyclopropylphenyl)pyridin-3-yl)quinazolin-4(1H)-one], the IC50 came to 0.105 µM.
With `Cc1cccc(-c2ncccc2-c2ccc3nc[nH]c3c2)c1` [Compound 178, 6-(2-m-Tolylpyridin-3-yl)-1H-benzo[d]imidazole], the IC50 is 0.187 µM.
On the same count and under the same terms, under `Cc1cc(-c2ncccc2-c2ccc3ncc(C(=O)NCCCO)n3c2)ccc1F` [compound 704, 6-(2-(4-Fluoro-3-methylphenyl)pyridin-3-yl)-N-(3-hydroxypropyl)imidazo[1,2-a]pyridine-3-carboxamide] stands 0.281 µM.
As for `CN(C)CCOc1ncnc2ccc(-c3cccnc3-c3ccc(F)c(Cl)c3)cc12` [compound 439, 2-((6-(2-(3-Chloro-4-fluorophenyl)pyridin-3-yl)quinazolin-4-yl)oxy)-N,N-dimethylethan-1-amine], the IC50 was found to be 0.738 µM.
Take `Cc1cc(-c2ncccc2-c2ccc3ncnc(NCC4CCN(C)CC4)c3c2)ccc1F` [compound 421, 6-(2-(4-Fluoro-3-methylphenyl)pyridin-3-yl)-N-((1-methylpiperidin-4-yl)methyl)quinazolin-4-amine]: the IC50 came out at 1.4 µM.
`Cc1cc(-c2ncccc2-c2ccn3ncc(C(=O)N[C@H]4CCCC[C@@H]4N)c3c2)ccc1F` [compound 664, N-((1S,2S)-2-Aminocyclohexyl)-5-(2-(4-fluoro-3-methylphenyl)pyridin-3-yl)pyrazolo[1,5-a]pyridine-3-carboxamide]: the IC50 came to 1.38 µM.
Regarding `Fc1cc(F)c(-c2ncccc2-c2ccc3ncnn3n2)cc1Cl` [compound 956, 6-(2-(5-Chloro-2,4-difluorophenyl)pyridin-3-yl)-[l 1,2,4]triazolo[1,5-b]pyridazine], the IC50 was 0.421 µM.
As to `Fc1cc(F)cc(-c2ncccc2-c2ccc3[nH]ncc3c2)c1` [Compound 67, 5-[2-(3,5-Difluorophenyl)pyridin-3-yl]-1H-indazole], the IC50 turned out to be 1.81 µM.
`CN1CCC(NC(=O)c2cnc3ccc(-c4cccnc4-c4cc(Cl)c(F)cc4F)cn23)CC1` [compound 723, 6-(2-(5-Chloro-2,4-difluorophenyl)pyridin-3-yl)-N-(1-methylpiperidin-4-yl)imidazo[1,2-a]pyridine-3-carboxamide]: the IC50 was 0.102 µM.
Regarding `Cc1cc(-c2ncc(COCC(N)=O)cc2-c2ccc3nccnc3c2)ccc1F` [compound 233, 2-((6-(4-Fluoro-3-methylphenyl)-5-(quinoxalin-6-yl)pyridin-3-yl)methoxy)acetamide], the IC50 is 6.69 µM.
Still for that read-out and setting: the result for `CCOCCCn1cnc2ccc(-c3cccnc3-c3cccc(C)c3)cc21` [Compound 39, 1-(3-Ethoxypropyl)-6-(2-m-tolylpyridin-3-yl)-1H-benzo[d]imidazole] reads 14.3 µM.
Take `Nc1nc2ccc(-c3cccnc3-c3ccc(F)c(Cl)c3)cn2n1` [compound 291, 6-(2-(3-Chloro-4-fluorophenyl)pyridin-3-yl)-[1,2,4]triazolo[1,5-a]pyridin-2-amine]: the IC50 worked out at 1.23 µM.
As for `CCN(CC)CCOc1ncnc2ccc(-c3cccnc3-c3ccc(F)c(Cl)c3)cc12` [compound 438, 2-((6-(2-(3-Chloro-4-fluorophenyl)pyridin-3-yl)quinazolin-4-yl)oxy)-N,N-diethylethan-1-amine], the IC50 is 0.959 µM.
Consider `Cc1cc(-c2ncccc2-c2ccc3cnc(-c4cccc(N)c4)n3c2)ccc1F` [compound 283, 3-(6-(2-(4-Fluoro-3-methylphenyl)pyridin-3-yl)imidazo[1,5-a]pyridin-3-yl)aniline], for which the IC50 is 17.7 µM.
The same measure, in the same setting: the result for `Cc1cc(-c2ncc(NCCCN3CCN(C)CC3)cc2-c2ccc3ncsc3c2)ccc1F` [compound 320, 5-(Benzo[d]thiazol-6-yl)-6-(4-fluoro-3-methylphenyl)-N-(3-(4-methylpiperazin-1-yl)propyl)pyridin-3-amine] reads 2.99 µM; that for `Nc1ncnc2ccc(-c3cccnc3-c3cc(O)cc(F)c3)cc12` [compound 494, 3-(3-(4-Aminoquinazolin-6-yl)pyridin-2-yl)-5-fluorophenol], 0.107 µM; that for `COc1cccc(-c2ncccc2-c2ccc3ncnn3c2)c1` [compound 779, 6-(2-(3-Methoxyphenyl)pyridin-3-yl)-[1,2,4]triazolo[1,5-a]pyridine], 0.761 µM.
Regarding `Cc1cc(-c2ncccc2-c2ccc3ncnc(OCCCN4CCCC4=O)c3c2)ccc1F` [compound 431, 1-(3-((6-(2-(4-Fluoro-3-methylphenyl)pyridin-3-yl)quinazolin-4-yl)oxy)propyl)pyrrolidin-2-one], the IC50 stood at 0.374 µM.
Turning to `N#Cc1cccc(-c2ncccc2-c2cnc3[nH]ncc3c2)c1` [Compound 154, 3-(3-(1H-Pyrazolo[3,4-b]pyridin-5-yl)pyridin-2-yl)benzonitrile], the IC50 was determined as 1.31 µM.
For `Cc1cc(-c2ncc(NCc3ccc(N4CCC(O)CC4)cc3)cc2-c2ccc3ncsc3c2)ccc1F` [compound 374, 1-(4-(((5-(Benzo[d]thiazol-6-yl)-6-(4-fluoro-3-methylphenyl)pyridin-3-yl)amino)methyl)phenyl)piperidin-4-ol], the IC50 turned out to be 0.495 µM.
Turning to `Cc1cc(-c2ncccc2-c2ccc3ncc(C(=O)NC4CCNCC4)n3c2)ccc1F` [compound 652, 6-(2-(4-Fluoro-3-methylphenyl)pyridin-3-yl)-N-(piperidin-4-yl)imidazo[1,2-a]pyridine-3-carboxamide], the IC50 was 3.78 µM.
